Test results: patent US8192962B2, “Processes for detecting toxic substances” (Daikin Industries, Ltd., priority 2001, dated 2012)

System: Genes belonging to other category
Test: DNA chip mRNA expression in yeast, genes belonging to other category (Table 9)
Assay type: cell-based, Saccharomyces cerevisiae S288C
In short: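 In this screen, yeast in logarithmic growth are challenged for two hours with a toxic substance at a non-lethal inhibitory concentration. Their mRNA, converted to Cy3- or Cy5-labeled cDNA, hybridizes at 65° C. to a chip spanning every yeast gene, and expression is expressed as a ratio to untreated cells.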

## N#Cc1c(Cl)c(Cl)c(Cl)c(C#N)c1Cl [(9), 2,4,5,6-tetrachloro-1,3-benzenedicarbonitrile]
Yeast gene YAL055W
  The level of expressed mRNA in the presence of chemical substance/The level of expressed mRNA in the absence of chemical substance: 1.0
Yeast gene YAR010C
  The level of expressed mRNA in the presence of chemical substance/The level of expressed mRNA in the absence of chemical substance: 1.2
Yeast gene YBL005W-A
  The level of expressed mRNA in the presence of chemical substance/The level of expressed mRNA in the absence of chemical substance: 0.8
Yeast gene YBL041W
  The level of expressed mRNA in the presence of chemical substance/The level of expressed mRNA in the absence of chemical substance: 2.8
Yeast gene YBL043W
  The level of expressed mRNA in the presence of chemical substance/The level of expressed mRNA in the absence of chemical substance: 0.5
Yeast gene YBL078C
  The level of expressed mRNA in the presence of chemical substance/The level of expressed mRNA in the absence of chemical substance: 12.3
Yeast gene YBL102W
  The level of expressed mRNA in the presence of chemical substance/The level of expressed mRNA in the absence of chemical substance: 2.3
Yeast gene YBR046C
  The level of expressed mRNA in the presence of chemical substance/The level of expressed mRNA in the absence of chemical substance: 4.6
Yeast gene YBR139W
  The level of expressed mRNA in the presence of chemical substance/The level of expressed mRNA in the absence of chemical substance: 2.3
Yeast gene YBR177C
  The level of expressed mRNA in the presence of chemical substance/The level of expressed mRNA in the absence of chemical substance: 2.1
Yeast gene YBR212W
  The level of expressed mRNA in the presence of chemical substance/The level of expressed mRNA in the absence of chemical substance: 2.7
Yeast gene YBR214W
  The level of expressed mRNA in the presence of chemical substance/The level of expressed mRNA in the absence of chemical substance: 2.2
Yeast gene YCL020W
  The level of expressed mRNA in the presence of chemical substance/The level of expressed mRNA in the absence of chemical substance: 0.9
Yeast gene YCL027W
  The level of expressed mRNA in the presence of chemical substance/The level of expressed mRNA in the absence of chemical substance: 0.7
Yeast gene YCL033C
  The level of expressed mRNA in the presence of chemical substance/The level of expressed mRNA in the absence of chemical substance: 2.3
Yeast gene YCL067C
  The level of expressed mRNA in the presence of chemical substance/The level of expressed mRNA in the absence of chemical substance: 1.4
Yeast gene YCR004C
  The level of expressed mRNA in the presence of chemical substance/The level of expressed mRNA in the absence of chemical substance: 4.7
Yeast gene YCR062W
  The level of expressed mRNA in the presence of chemical substance/The level of expressed mRNA in the absence of chemical substance: 0.7
Yeast gene YCR071C
  The level of expressed mRNA in the presence of chemical substance/The level of expressed mRNA in the absence of chemical substance: 0.6
Yeast gene YCR088W
  The level of expressed mRNA in the presence of chemical substance/The level of expressed mRNA in the absence of chemical substance: 0.8
Yeast gene YDL007W
  The level of expressed mRNA in the presence of chemical substance/The level of expressed mRNA in the absence of chemical substance: 3.8
Yeast gene YDL008W
  The level of expressed mRNA in the presence of chemical substance/The level of expressed mRNA in the absence of chemical substance: 2.3
Yeast gene YDL018C
  The level of expressed mRNA in the presence of chemical substance/The level of expressed mRNA in the absence of chemical substance: 1.0
Yeast gene YDL065C
  The level of expressed mRNA in the presence of chemical substance/The level of expressed mRNA in the absence of chemical substance: 2.4
Yeast gene YDL197C
  The level of expressed mRNA in the presence of chemical substance/The level of expressed mRNA in the absence of chemical substance: 2.6
Yeast gene YDL229W
  The level of expressed mRNA in the presence of chemical substance/The level of expressed mRNA in the absence of chemical substance: 1.4
Yeast gene YDL230W
  The level of expressed mRNA in the presence of chemical substance/The level of expressed mRNA in the absence of chemical substance: 2.6
Yeast gene YDL238C
  The level of expressed mRNA in the presence of chemical substance/The level of expressed mRNA in the absence of chemical substance: 1.7
Yeast gene YDR055W
  The level of expressed mRNA in the presence of chemical substance/The level of expressed mRNA in the absence of chemical substance: 0.8
Yeast gene YDR084C
  The level of expressed mRNA in the presence of chemical substance/The level of expressed mRNA in the absence of chemical substance: 0.6
Yeast gene YDR085C
  The level of expressed mRNA in the presence of chemical substance/The level of expressed mRNA in the absence of chemical substance: 0.4
Yeast gene YDR099W
  The level of expressed mRNA in the presence of chemical substance/The level of expressed mRNA in the absence of chemical substance: 2.4
Yeast gene YDR104C
  The level of expressed mRNA in the presence of chemical substance/The level of expressed mRNA in the absence of chemical substance: 2.8
Yeast gene YDR115W
  The level of expressed mRNA in the presence of chemical substance/The level of expressed mRNA in the absence of chemical substance: 1.1
Yeast gene YDR125C
  The level of expressed mRNA in the presence of chemical substance/The level of expressed mRNA in the absence of chemical substance: 0.7
Yeast gene YDR188W
  The level of expressed mRNA in the presence of chemical substance/The level of expressed mRNA in the absence of chemical substance: 2.9
Yeast gene YDR257C
  The level of expressed mRNA in the presence of chemical substance/The level of expressed mRNA in the absence of chemical substance: 3.0
Yeast gene YDR259C
  The level of expressed mRNA in the presence of chemical substance/The level of expressed mRNA in the absence of chemical substance: 1.0
Yeast gene YDR315C
  The level of expressed mRNA in the presence of chemical substance/The level of expressed mRNA in the absence of chemical substance: 1.1
Yeast gene YDR358W
  The level of expressed mRNA in the presence of chemical substance/The level of expressed mRNA in the absence of chemical substance: 2.9
Yeast gene YDR388W
  The level of expressed mRNA in the presence of chemical substance/The level of expressed mRNA in the absence of chemical substance: 1.4
Yeast gene YDR427W
  The level of expressed mRNA in the presence of chemical substance/The level of expressed mRNA in the absence of chemical substance: 2.3
Yeast gene YDR432W
  The level of expressed mRNA in the presence of chemical substance/The level of expressed mRNA in the absence of chemical substance: 0.7
Yeast gene YDR481C
  The level of expressed mRNA in the presence of chemical substance/The level of expressed mRNA in the absence of chemical substance: 1.9
Yeast gene YDR506C
  The level of expressed mRNA in the presence of chemical substance/The level of expressed mRNA in the absence of chemical substance: 1.9
Yeast gene YDR510W
  The level of expressed mRNA in the presence of chemical substance/The level of expressed mRNA in the absence of chemical substance: 2.7
Yeast gene YDR515W
  The level of expressed mRNA in the presence of chemical substance/The level of expressed mRNA in the absence of chemical substance: 5.8
Yeast gene YEL042W
  The level of expressed mRNA in the presence of chemical substance/The level of expressed mRNA in the absence of chemical substance: 0.2
Yeast gene YEL052W
  The level of expressed mRNA in the presence of chemical substance/The level of expressed mRNA in the absence of chemical substance: 3.0
Yeast gene YEL066W
  The level of expressed mRNA in the presence of chemical substance/The level of expressed mRNA in the absence of chemical substance: 1.3
